According to PubChem BioAssay (NCI):
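Grown in 96-well plates, cells were treated for 48 hours with each compound at five concentrations. Insufficient inhibition: endpoint recorded as highest concentration tested. GI50 marks 50% less growth. TGI denotes the concentration required for complete inhibition of growth.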

What was measured:
Assay in all cases: growth of human tumour cells (NCI), 48 h
NCI-H226 lung = tested on: NCI-H226 lung
M14 melanoma = tested on: M14 melanoma
HL-60(TB) leukemia = tested on: HL-60(TB) leukemia
T-47D breast = tested on: T-47D breast
MDA-MB-231 breast = tested on: MDA-MB-231 breast
SF-268 CNS = tested on: SF-268 CNS
CCRF-CEM leukemia = tested on: CCRF-CEM leukemia
UACC-62 melanoma = tested on: UACC-62 melanoma
OVCAR-3 ovarian = tested on: OVCAR-3 ovarian
EKVX NSCLC = tested on: EKVX NSCLC
NCI-H460 lung = tested on: NCI-H460 lung
MCF7 breast = tested on: MCF7 breast
BT-549 breast = tested on: BT-549 breast
SK-MEL-2 melanoma = tested on: SK-MEL-2 melanoma
LOX IMVI melanoma = tested on: LOX IMVI melanoma
U251 CNS = tested on: U251 CNS
A549 NSCLC = tested on: A549 NSCLC
SNB-75 CNS = tested on: SNB-75 CNS
HT29 colon = tested on: HT29 colon
UACC-257 melanoma = tested on: UACC-257 melanoma
MALME-3M melanoma = tested on: MALME-3M melanoma
SF-539 CNS = tested on: SF-539 CNS
786-0 renal = tested on: 786-0 renal
HCT-116 colon = tested on: HCT-116 colon
SK-MEL-28 melanoma = tested on: SK-MEL-28 melanoma
HOP-92 NSCLC = tested on: HOP-92 NSCLC
MOLT-4 leukemia = tested on: MOLT-4 leukemia
KM12 colon = tested on: KM12 colon
HOP-62 NSCLC = tested on: HOP-62 NSCLC
NCI-H522 lung = tested on: NCI-H522 lung
A498 renal = tested on: A498 renal
SW-620 colon = tested on: SW-620 colon
TK-10 renal = tested on: TK-10 renal
HCT-15 colon = tested on: HCT-15 colon
K-562 leukemia = tested on: K-562 leukemia
RXF 393 renal = tested on: RXF 393 renal
SK-OV-3 ovarian = tested on: SK-OV-3 ovarian
SK-MEL-5 melanoma = tested on: SK-MEL-5 melanoma
IGROV1 ovarian = tested on: IGROV1 ovarian
OVCAR-8 ovarian = tested on: OVCAR-8 ovarian
ACHN renal = tested on: ACHN renal
UO-31 renal = tested on: UO-31 renal
SF-295 CNS = tested on: SF-295 CNS
CAKI-1 renal = tested on: CAKI-1 renal
HS 578T breast = tested on: HS 578T breast
DU-145 prostate = tested on: DU-145 prostate
SN12C renal = tested on: SN12C renal
PC-3 prostate = tested on: PC-3 prostate
MDA-MB-435 = tested on: MDA-MB-435
OVCAR-4 ovarian = tested on: OVCAR-4 ovarian
SNB-19 CNS = tested on: SNB-19 CNS
COLO 205 colon = tested on: COLO 205 colon

Structure (SMILES): CCC(C)C(NC(=O)C1CCCN1C(=O)C(NC(=O)C(C)N)C(C)C)C(N)=O (centres undefined)
- GI50 (NCI-H226 lung): > 100 µM
- TGI (NCI-H226 lung): > 100 µM
- GI50 (M14 melanoma): > 100 µM
- TGI (M14 melanoma): > 100 µM
- GI50 (HL-60(TB) leukemia): > 100 µM
- TGI (HL-60(TB) leukemia): > 100 µM
- GI50 (T-47D breast): > 100 µM
- TGI (T-47D breast): > 100 µM
- GI50 (MDA-MB-231 breast): > 100 µM
- TGI (MDA-MB-231 breast): > 100 µM
- GI50 (SF-268 CNS): > 100 µM
- TGI (SF-268 CNS): > 100 µM
- GI50 (CCRF-CEM leukemia): > 100 µM
- TGI (CCRF-CEM leukemia): > 100 µM
- GI50 (UACC-62 melanoma): > 100 µM
- TGI (UACC-62 melanoma): > 100 µM
- GI50 (OVCAR-3 ovarian): > 100 µM
- TGI (OVCAR-3 ovarian): > 100 µM
- GI50 (EKVX NSCLC): 77.2 µM
- TGI (EKVX NSCLC): > 100 µM
- GI50 (NCI-H460 lung): > 100 µM
- TGI (NCI-H460 lung): > 100 µM
- GI50 (MCF7 breast): > 100 µM
- TGI (MCF7 breast): > 100 µM
- GI50 (BT-549 breast): > 100 µM
- TGI (BT-549 breast): > 100 µM
- GI50 (SK-MEL-2 melanoma): > 100 µM
- TGI (SK-MEL-2 melanoma): > 100 µM
- GI50 (LOX IMVI melanoma): > 100 µM
- TGI (LOX IMVI melanoma): > 100 µM
- GI50 (U251 CNS): > 100 µM
- TGI (U251 CNS): > 100 µM
- GI50 (A549 NSCLC): > 100 µM
- TGI (A549 NSCLC): > 100 µM
- GI50 (SNB-75 CNS): > 100 µM
- TGI (SNB-75 CNS): > 100 µM
- GI50 (HT29 colon): > 100 µM
- TGI (HT29 colon): > 100 µM
- GI50 (UACC-257 melanoma): > 100 µM
- TGI (UACC-257 melanoma): > 100 µM
- GI50 (MALME-3M melanoma): 52.3 µM
- TGI (MALME-3M melanoma): > 100 µM
- TGI (SF-539 CNS): > 100 µM
- GI50 (786-0 renal): > 100 µM
- TGI (786-0 renal): > 100 µM
- GI50 (HCT-116 colon): > 100 µM
- TGI (HCT-116 colon): > 100 µM
- GI50 (SK-MEL-28 melanoma): > 100 µM
- TGI (SK-MEL-28 melanoma): > 100 µM
- GI50 (HOP-92 NSCLC): > 100 µM
- TGI (HOP-92 NSCLC): > 100 µM
- GI50 (MOLT-4 leukemia): > 100 µM
- TGI (MOLT-4 leukemia): > 100 µM
- GI50 (KM12 colon): > 100 µM
- TGI (KM12 colon): > 100 µM
- GI50 (HOP-62 NSCLC): > 100 µM
- TGI (HOP-62 NSCLC): > 100 µM
- GI50 (NCI-H522 lung): > 100 µM
- TGI (NCI-H522 lung): > 100 µM
- GI50 (A498 renal): > 100 µM
- TGI (A498 renal): > 100 µM
- GI50 (SW-620 colon): > 100 µM
- TGI (SW-620 colon): > 100 µM
- GI50 (TK-10 renal): > 100 µM
- TGI (TK-10 renal): > 100 µM
- GI50 (HCT-15 colon): > 100 µM
- TGI (HCT-15 colon): > 100 µM
- GI50 (K-562 leukemia): > 100 µM
- TGI (K-562 leukemia): > 100 µM
- GI50 (RXF 393 renal): > 100 µM
- TGI (RXF 393 renal): > 100 µM
- GI50 (SK-OV-3 ovarian): > 100 µM
- TGI (SK-OV-3 ovarian): > 100 µM
- GI50 (SK-MEL-5 melanoma): > 100 µM
- TGI (SK-MEL-5 melanoma): > 100 µM
- GI50 (IGROV1 ovarian): > 100 µM
- TGI (IGROV1 ovarian): > 100 µM
- GI50 (OVCAR-8 ovarian): > 100 µM
- TGI (OVCAR-8 ovarian): > 100 µM
- GI50 (ACHN renal): > 100 µM
- TGI (ACHN renal): > 100 µM
- GI50 (UO-31 renal): > 100 µM
- TGI (UO-31 renal): > 100 µM
- GI50 (SF-295 CNS): > 100 µM
- TGI (SF-295 CNS): > 100 µM
- GI50 (CAKI-1 renal): > 100 µM
- TGI (CAKI-1 renal): > 100 µM
- GI50 (HS 578T breast): > 100 µM
- TGI (HS 578T breast): > 100 µM
- GI50 (DU-145 prostate): > 100 µM
- TGI (DU-145 prostate): > 100 µM
- GI50 (SN12C renal): > 100 µM
- TGI (SN12C renal): > 100 µM
- GI50 (PC-3 prostate): > 100 µM
- TGI (PC-3 prostate): > 100 µM
- GI50 (MDA-MB-435): > 100 µM
- TGI (MDA-MB-435): > 100 µM
- GI50 (OVCAR-4 ovarian): > 100 µM
- TGI (OVCAR-4 ovarian): > 100 µM
- GI50 (SNB-19 CNS): > 100 µM
- TGI (SNB-19 CNS): > 100 µM
- GI50 (COLO 205 colon): > 100 µM
- TGI (COLO 205 colon): > 100 µM

Structure (SMILES): Nc1ncnc2c1ncn2CC(CO)CC(c1ccccc1)P(=O)(O)O (centres undefined)
- TGI (M14 melanoma): 1.64 µM
